The source of these data is patent publication US5070092A, “Pyrroloindole derivatives related to DC-88A compound” (Kyowa Hakko Kogyo Co., Ltd., priority 1989, dated 1991).

The conditions of series [1]: prior art U.S. Pat. No. 4,169,888, EP-A-0154445, EP-A-0339681; cited from earlier work.
The subject of another series is dd strain male mice. Nature of the series: Acute Toxicity Test. The following applies: intraperitoneal, 14 days after administration. In kind it is in vivo. Here is the method:
A test compound was intraperitoneally administered to dd strain male mice each weighing 20 ±1 g. MLD (the minimum lethal dose) was determined by observing the mortality for 14 days after the administration.

For a further series, the system named is Sarcoma 180 tumor cells. Nature of the series: Therapeutic Effect against Sarcoma 180 Tumor Cells. In kind it is in vivo, male ddY-strain mice. As to conditions: intravenous, seven days after implantation. The protocol: Five male ddY-strain mice each having a weight of 18 to 20 g were used for each group as test animals, and 5×10^5 Sarcoma 180 tumor cells were implanted subcutaneously into the animals at the axilla. Ond day after the implantation, 0.2 ml of physiological saline containing a test compound in the concentration indicated in Table 3 was intravenously administered to each mouse. T/C [T: average tumor volume (mm^3) of the groups treated with the test compound, C: that of the control group which received an intravenous administration of 0.2 ml of physiological saline] was determined seven days after the implantation.

The test system of a further series is various bacteria. As to conditions: prior art WO 87/06265, EP-A-0351865, JP 139590/89; cited from earlier work.
Series [2] relates to lymphocytic leukemia P388. The following applies: prior art WO 87/06265, EP-A-0351865, JP 139590/89; cited from earlier work.

As for `COc1c(O)c2c(c3cc(C(=O)N4CCc5c4c(O)c(OC)c4[nH]c(C(=O)N6CC7CC78C6=CC(=O)c6[nH]cc(C)c68)cc54)[nH]c13)CCN2C(N)=O` (centres unmarked) [CC-1065], the anti-tumor activity entry in series [1] is on record as “exhibit anti-tumor activity”.
With `COC(=O)c1c(C)[nH]c2c(O[Si](C)(C)C(C)(C)C)cc3c(c12)C(CBr)CN3C(=O)c1cc2cc(OC)c(OC)c(OC)c2[nH]1` (centres unmarked) [Compound 1], the “Acute Toxicity (MLD), minimum lethal dose” value (“Acute Toxicity (MLD)” for short) in the series on dd strain male mice came out at 1.0 mg/kg. Moreover, the “Sarcoma 180 T/C (average tumor volume, treated/control)” value with Sarcoma 180 tumor cells (dose 0.25 mg/kg) came to 0.043.
As to `COC(=O)c1c(C)[nH]c2c(O)cc3c(c12)C(CCl)CN3C(=O)c1cc2cc(OC)c(OC)c(OC)c2[nH]1` (centres unmarked) [Compound 2], in the series on dd strain male mice, the “Acute Toxicity (MLD)” value stood at 1.0 mg/kg.
In the case of `COC(=O)c1c(C)[nH]c2c1C13CC1CN(C(=O)c1cc4cc(OC)c(OC)c(OC)c4[nH]1)C3=CC2=O` (centres unmarked) [Compound 4], in the series with dd strain male mice, the “Acute Toxicity (MLD)” value was 0.5 mg/kg. For the same molecule, the “Sarcoma 180 T/C (average tumor volume, treated/control)” value with Sarcoma 180 tumor cells (dose 0.25 mg/kg) amounted to 0.21.
Regarding `COC(=O)c1c(C)[nH]c2c(OC(=O)N(C)C)cc3c(c12)C(CBr)CN3C(=O)c1cc2cc(OC)c(OC)c(OC)c2[nH]1` (centres unmarked) [Compound 13], the “Acute Toxicity (MLD)” value in the series on dd strain male mice was 1.0 mg/kg. Besides, in the series on Sarcoma 180 tumor cells (dose 1.0 mg/kg), the “Sarcoma 180 T/C (average tumor volume, treated/control)” value is 0.063.
Turning to `COC(=O)c1c(C)[nH]c2c(OC(=O)N3CCCCC3)cc3c(c12)C(CBr)CN3C(=O)c1cc2cc(OC)c(OC)c(OC)c2[nH]1` (centres unmarked) [Compound 14], in the series with dd strain male mice, the “Acute Toxicity (MLD)” value is listed as 1.0 mg/kg. Further, the “Sarcoma 180 T/C (average tumor volume, treated/control)” value amounted to 0.20 in the series with Sarcoma 180 tumor cells (dose 0.50 mg/kg) and 0.098 in the series with Sarcoma 180 tumor cells (dose 1.0 mg/kg).
Taken in the same sequence, the figures for `COC(=O)c1c(C)[nH]c2c(OC(=O)N3CCCC3)cc3c(c12)C(CBr)CN3C(=O)c1cc2cc(OC)c(OC)c(OC)c2[nH]1` (centres unmarked) [Compound 15] were 1.0 mg/kg, 0.21 and 0.088.
Take `COC(=O)c1c(C)[nH]c2c(OC(=O)N3CCN(C)CC3)cc3c(c12)C(CBr)CN3C(=O)c1cc2cc(OC)c(OC)c(OC)c2[nH]1` (centres unmarked) [Compound 16]: the “Acute Toxicity (MLD)” value in the series with dd strain male mice turned out to be 1.0 mg/kg. Further, in the series on Sarcoma 180 tumor cells (dose 0.50 mg/kg, 0.5 mg/kg), the “Sarcoma 180 T/C (average tumor volume, treated/control)” value turned out to be 0.24.
Taken in the same sequence, the figures for `COC(=O)c1c(C)[nH]c2c(OC(=O)N3CCN(C)CC3)cc3c(c12)C(CBr)CN3C(=O)c1cc2cc(OC)c(OC)c(OC)c2[nH]1` (centres unmarked) [Compound 18] were 0.84 mg/kg and 0.14.
In the case of `COC(=O)C1(C)NC2=C(C1=O)C13CC1CN(C(=O)c1cc4cc(OC)c(OC)c(OC)c4[nH]1)C3=CC2=O` (centres unmarked) [DC-88A], the antibacterial activity entry with various bacteria is “antibacterial activity against various bacteria”. The “anti-tumor activity against lymphocytic leukemia P388” value in series [2] is “anti-tumor activity against lymphocytic leukemia P388”.
